These results are taken from ChEMBL document CHEMBL1125213 (J Med Chem, 1991).

One data set deals with T1, Adenosine receptor A1 (Rattus norvegicus, UniProt P25099).
T1 sequence (P25099 whole entry): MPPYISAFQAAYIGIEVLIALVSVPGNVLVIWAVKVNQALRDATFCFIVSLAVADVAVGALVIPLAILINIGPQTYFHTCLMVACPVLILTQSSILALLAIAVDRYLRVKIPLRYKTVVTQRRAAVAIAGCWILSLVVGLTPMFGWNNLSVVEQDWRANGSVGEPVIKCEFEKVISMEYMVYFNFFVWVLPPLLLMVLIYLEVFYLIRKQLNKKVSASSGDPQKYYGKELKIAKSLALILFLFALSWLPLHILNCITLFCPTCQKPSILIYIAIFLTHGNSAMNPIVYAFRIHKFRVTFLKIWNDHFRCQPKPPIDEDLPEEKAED
As to the kind of experiment: Binding affinity against adenosine A1 receptor in rat cortex by using [3H]- PIA as a radioligand. The format is tissue-based.

Data set [1] concerns the target T2, Adenosine A2 receptor (Rattus norvegicus, UniProt P29276+P30543). The data set is described as follows: Binding affinity against adenosine A2 receptor in rat striatum by using [3H]NECA as a radioligand. The data set is classed as tissue-based.
Data set [2] addresses T2, Adenosine A2 receptor. As to the kind of experiment: Tested for inhibition of rat PC12 adenylate cyclase stimulation by using NECA as a radioligand. The format is cell-based. The conditions noted are these: pc-12.
Data set [3] is described as follows: Hydrophobicity index. The data set is classed as ADME.
For data set [4], the target named is Adenosine receptors; A1 & A2 (Rattus norvegicus) (UniProt P29276+P25099+P30543). As to the kind of experiment: It is the ratio of Ki value of A1 receptor to that of A2 receptor. The format is protein assay.
Data set [5] has as its target T3, Adenosine receptor A1 (Rattus norvegicus) (UniProt P25099).
T3 sequence (whole entry): T1 sequence (P25099 whole entry)
The settings on record: 100 uM.
Description: Inhibition of [3H]PIA binding to adenosine A1 receptor of rat cortex at 100 uM

`Nc1ncnc2c1ncn2-c1ccccc1`: the Ki at Adenosine receptor A1 worked out at 19 µM; on Adenosine A2 receptor [1], 38 µM; on Adenosine A2 receptor [2], 74 µM. Further, the “k'” value in data set [3] was found to be 0.56. In addition, the Selectivity ratio in data set [4] turned out to be 2.
On the same counts, the results for `Cn1cnc2c(N)nc(Cl)nc21` are 23 µM, 11 µM, 16 µM, 0.22 and 0.48.
Turning to `Cn1cnc2c(Nc3ccccc3)nc(Cl)nc21`, the Ki on Adenosine receptor A1 came out at 7 µM; at Adenosine A2 receptor [1] it was 31 µM; at Adenosine A2 receptor [2], 21 µM. The Selectivity ratio in data set [4] came out at 4.4.
On the same counts, the results for `CC[C@@H](Nc1nc(Cl)nc2c1ncn2C)c1ccccc1` are 3.3 µM, 6.8 µM, 4.3 µM and 2.1.
With `Nc1ncnc2c1ncn2C1CCCC1`, the Ki came out at 1.8 µM on Adenosine receptor A1, 8.2 µM at Adenosine A2 receptor [1] and 3.4 µM on Adenosine A2 receptor [2]. Besides, the “k'” value in data set [3] was determined as 1.94. The Selectivity ratio in data set [4] turned out to be 4.6.
Regarding `CC[C@H](Nc1ncnc2c1ncn2-c1ccccc1)c1ccccc1`, the Ki worked out at 7.2 µM on Adenosine receptor A1, 18 µM at Adenosine A2 receptor [1] and 9.9 µM at Adenosine A2 receptor [2]. Also, in data set [4], the Selectivity ratio came out at 2.5.
On to `Nc1ncnc2c1ncn2C1CCCO1` (stereo not given), for which the Ki on Adenosine A2 receptor [1] worked out at 23 µM; at Adenosine A2 receptor [2], 2.4 µM. For the same compound, the “k'” value in data set [3] is 0.21. In addition, in data set [4], the Selectivity ratio stood at 0.82.
In the case of `OCCn1cnc2c(NC3CCCC3)ncnc21`, the inhibition constant Ki on Adenosine receptor A1 came out at 3.3 µM; on Adenosine A2 receptor [1], 47 µM; on Adenosine A2 receptor [2] it was 27 µM. In data set [3], the “k'” value stood at 0.68. In addition, the Selectivity ratio in data set [4] turned out to be 14.
As to `Cn1cnc2c(NC3CCCCC3)ncnc21`, the Ki stood at 13 µM on Adenosine A2 receptor [1] and 21 µM on Adenosine A2 receptor [2]. Besides, in data set [4], the Selectivity ratio was 14.
Take `Cn1cnc2c(NC3CCCC3)ncnc21`: the inhibition constant Ki on Adenosine A2 receptor [1] is 11 µM; on Adenosine A2 receptor [2] it was 25 µM. The “k'” value in data set [3] is listed as 1.29. Also, in data set [4], the Selectivity ratio is 26.
For the compound `CC[C@@H](Nc1ncnc2c1ncn2-c1ccccc1)c1ccccc1`, the Ki on Adenosine receptor A1 was 4.7 µM; at Adenosine A2 receptor [1], 15 µM; on Adenosine A2 receptor [2], 11 µM. For the same compound, the Selectivity ratio in data set [4] was determined as 3.2.
As for `c1ccc(-n2cnc3c(NC4CCCC4)ncnc32)cc1`, the Ki on Adenosine receptor A1 is 8.7 µM; on Adenosine A2 receptor [1], 79 µM; on Adenosine A2 receptor [2], 47 µM. The “k'” value in data set [3] stood at 3.91. Besides, the Selectivity ratio in data set [4] turned out to be 9.1.
Regarding `CC[C@@H](Nc1ncnc2c1ncn2C)c1ccccc1.Cl`, the Ki stood at 2.5 µM at Adenosine receptor A1, 55 µM at Adenosine A2 receptor [1] and 25 µM on Adenosine A2 receptor [2]. Moreover, the Selectivity ratio in data set [4] worked out at 22.
For the compound `Nc1ncnc2c1ncn2CCO`, the Ki at Adenosine receptor A1 was > 100 µM; at Adenosine A2 receptor [1], 46 µM; on Adenosine A2 receptor [2], 12 µM. For the same compound, the “k'” value in data set [3] turned out to be 0.04. In data set [4], the Selectivity ratio is < 0.5. This compound displayed an Inhibition in data set [5] of 30%.
Take `CCn1cnc2c(NC3CCCC3)ncnc21`: the Ki on Adenosine A2 receptor [1] was 17 µM; at Adenosine A2 receptor [2], 10.3 µM. In addition, the “k'” value in data set [3] is on record as 1.66. Besides, the Selectivity ratio in data set [4] was 39.
On to `Cn1cnc2c(N)ncnc21`, for which the Ki on Adenosine receptor A1 is 69 µM; on Adenosine A2 receptor [1], 15 µM; at Adenosine A2 receptor [2] it was 24 µM. Also, the “k'” value in data set [3] was 0.11. The Selectivity ratio in data set [4] is 0.22.
Turning to `c1ccc(Nc2ncnc3c2ncn3-c2ccccc2)cc1`, the Ki was determined as 6.9 µM at Adenosine receptor A1, 111 µM on Adenosine A2 receptor [1] and 50 µM at Adenosine A2 receptor [2]. For the same compound, the Selectivity ratio in data set [4] is 16.
Take `c1nc(NC2CCCC2)c2ncn(C3CCCC3)c2n1`: the Ki at Adenosine receptor A1 was determined as 1.2 µM; at Adenosine A2 receptor [1] it was 19 µM; on Adenosine A2 receptor [2], 5.1 µM. Also, in data set [3], the “k'” value is reported as 4.99. Further, in data set [4], the Selectivity ratio is 16.
On the same counts, the results for `Cn1cnc2c(NC3CCCC3)nc(Cl)nc21` are 0.53 µM, 9.3 µM, 6.3 µM, 3.37 and 18.
Turning to `CC[C@H](Nc1nc(Cl)nc2c1ncn2C)c1ccccc1`, the Ki at Adenosine receptor A1 came to 2.8 µM; on Adenosine A2 receptor [1], 12 µM; at Adenosine A2 receptor [2] it was 17 µM. Moreover, the Selectivity ratio in data set [4] was determined as 4.3.
`CCn1cnc2c(N)ncnc21`: the Ki on Adenosine A2 receptor [1] is 8.8 µM; at Adenosine A2 receptor [2], 5.6 µM. In addition, the “k'” value in data set [3] was 0.39. Besides, the Selectivity ratio in data set [4] came out at 0.19.
As for `Cn1cnc2c(Nc3ccccc3)ncnc21`, the Ki came out at 6.9 µM at Adenosine receptor A1, 68 µM on Adenosine A2 receptor [1] and 107 µM at Adenosine A2 receptor [2]. In addition, in data set [4], the Selectivity ratio amounted to 9.9.
On the same counts, the results for `CCn1cnc2c(NC3CCCCC3)ncnc21` are 2 µM, 11 µM, 8.5 µM and 5.5.
On the same counts, the results for `CC[C@H](Nc1ncnc2c1ncn2C)c1ccccc1.Cl` are 11 µM, 84 µM, 74 µM and 7.6.
As for `c1nc(NC2CCCC2)c2ncn(C3CCCO3)c2n1` (stereo not given), the values for the Ki at Adenosine receptor A1, on Adenosine A2 receptor [1] and at Adenosine A2 receptor [2] were 1.7 µM, 39 µM and 30 µM, respectively. The “k'” value in data set [3] is reported as 1.81. Moreover, in data set [4], the Selectivity ratio is 23.
